The source of these data is patent US10428115B2, “Dynorphin A analogs with bradykinin receptors specificity for modulation of neuropathic pain” (THE ARIZONA BOARD OF REGENTS ON BEHALF OF THE UNIVERSITY OF …, priority 2013, dated 2019).

In general, IC50 refers to the concentration needed to halve the response being measured. What is called half-life is the time needed for the level to fall by half in the phase considered. Low values mean rapid decline, high ones slow decline.

Data set [1] concerns the target rat brain bradykinin receptors. Kind of data set: Radioligand competition binding against [3H]DALKD in rat brain membranes. The conditions noted are these: for IC50: [3H]DALKD. The protocol: Binding affinities of dynorphin A analogs at the bradykinin receptors were determined by radioligand competition analysis using [^3H]DALKD or [^3H]BK in rat brain membranes or transfected HEK 293 cells expressing the human B2R. Crude rat brain membranes were pelleted and resuspended in 50 mM Tris buffer containing 50 μg/mL bacitracin, 10 μM captopril, 100 μM PMSF, and 5 mg/mL BSA. 10 concentrations of a test compound were each incubated with 50 μg of membranes and [^3H]DALKD (1 nM, 76.0 Ci/mmol) or [^3H]BK (1 nM, 85.4 Ci/mmol) at 25° C. for 2 h. Non-specific binding was defined by that in the presence of […] KD in all assays. Reactions were terminated by rapid filtration through Whatman GF/B filters presoaked in 1% polyethyleneimine, followed with four washes of 2 mL cold saline. Radioactivity was determined by liquid scintillation counting in a Beckman LS5000 TD. Data were analyzed by non-linear least squares analysis using GraphPad Prism (Version 4). […]

For another data set, the system named is guinea pig ileum. The following applies: compared with the enkephalins and β-endorphin; cited from earlier work.
The nature of data set [2]: Stability in plasma (t1/2).
Another data set concerns naive rats. Kind of data set: Motor function and paralysis after intrathecal injection (hindlimb tests, tail-flick) in naive rats. Type of data set: in vivo, rat. The conditions noted are these: intrathecal injection, naive rats. The protocol: Intrathecal (i.th.) catheterization. While under ketamine/xylazine (80/12 mg/kg, i.p.) anesthesia, some groups of rats were implanted with i.th. catheters (polyethylene 10, 7.8 cm) through atlanto-occipital membrane extended to the level of the lumbar spinal cord for drug administration. Animals were allowed to recover for 7 days. Drugs were injected in a volume of 5 μl, followed by a 1 μl air bubble and a 9 μl saline flush.
Tail-flick test. The hot-water tail-flick test was performed by placing the distal third of the tail in a water bath maintained at 52° C. The latency until tail withdrawal from the bath was determined and compared among the treatments. A 10 sec cutoff was used to avoid tissue damage. Data were converted to percentage of antinociception by the following formula: (response latency−baseline latency)/(cutoff−baseline latency)*100.

Setting [3] is: Table 3, rat brain bradykinin receptors, pH 7.4, read-out: IC50 (nM) at pH 7.4, N > 2.
Setting [4] is: Table 1, brain bradykinin receptors, pH 6.8, read-out: IC50 (nM) at pH 6.8, n ≥ 2.
Where [5] appears, read: Table 1, brain bradykinin receptors, pH 7.4, read-out: IC50 (nM) at pH 7.4, n ≥ 2.
Setting [6] is: Table 2, rat brain bradykinin receptors, pH 7.4, read-out: IC50 (nM) at pH 7.4, n > 2.
[7] abbreviates: Table 5, rat brain bradykinin receptors, pH 7.4, read-out: IC50 (nM) at pH 7.4, N > 2.
The mark [8] stands for this setting: Table 4, rat brain bradykinin receptors, pH 7.4, read-out: IC50 (nM) at pH 7.4, N > 2.
The mark [9] stands for this setting: Table 6, rat brain bradykinin receptors, pH 6.8, read-out: IC50 (nM), cell marked at pH 6.8.
Setting [10] is: Table 5, rat brain bradykinin receptors, pH 6.8, read-out: IC50 (nM), cell marked at pH 6.8.
Setting [11] is: Table 6, rat brain bradykinin receptors, pH 7.4, read-out: IC50 (nM) at pH 7.4, N > 2.

Like-named read-outs stand apart in the source and are kept apart here. Square brackets hold non-standard residues; d marks the D form. Ends that are not written are not given here. Nle = CCCC[C@H](N)C(=O)O Bounds are passed on as bounds.

For the compound IRPKL [RK107, Ile-Arg-Pro-Lys-Leu-NH2], in data set [1] (setting [3]), the IC50 amounted to 8700 nM.

For the compound “FLRRIRPK [LYS1026, Phe-Leu-Arg-Arg-Ile-Arg-Pro-Lys]”, the half-maximal inhibitory concentration (IC50) in data set [1] (setting [4]) came out at 69 nM; in data set [1] (setting [5]) it was 140 nM; in data set [1] (setting [3]), 140 nM.

Consider “GFLRRI [LYS1004, Gly-Phe-Leu-Arg-Arg-Ile]”, for which the half-inhibitory concentration (IC50) in data set [1] (setting [6]) came out at 2300 nM.

On to “LRIRPKLK [LYS1040, Leu-Arg-Ile-Arg-Pro-Lys-Leu-Lys]”, for which the IC50 is 30 nM in data set [1] (setting [4]), 68 nM in data set [1] (setting [5]) and 68 nM in data set [1] (setting [7]).

In the case of “GFLRRIRPKL [LYS1024, Gly-Phe-Leu-Arg-Arg-Ile-Arg-Pro-Lys-Leu]”, the IC50 in data set [1] (setting [6]) was determined as 280 nM.

For the compound GFLRR [BP006D, Gly-Phe-Leu-Arg-Arg], the IC50 in data set [1] (setting [6]) was 8100 nM. Consider “Ac-Phe-Leu-Arg-Ile-Arg-Pro-DLys (Ac-FLRIRP[dK]) [AP111]”, for which the IC50 in data set [1] (setting [3]) is 550 nM. As for “AN108-4: dynorphin A analog; Table 4 prints only changes: Ac-DPhe at 4, Nle at 5, Nle at 8, Arg at 11 (Ac-[dF][Nle]R[Nle]RPR)”, in data set [1] (setting [8]), the half-maximal inhibitory concentration (IC50) came to 54 nM.

For the compound “AN108-1: dynorphin A analog; Table 4 prints only changes: Ac- at 4, Nle at 5, Nle at 8, Arg at 11 (Ac-F[Nle]R[Nle]RPR)”, the IC50 in data set [1] (setting [8]) stood at 140 nM. Consider “LRIRPK [LYS1043, Leu-Arg-Ile-Arg-Pro-Lys]”, for which, in data set [1] (setting [7]), the IC50 was determined as 180 nM. Consider “Tyr-Gly-Gly-Phe-Leu-Arg-Arg-Ile-Arg-Pro-Lys-Leu-Lys (YGGFLRRIRPKLK; listed as Homo sapiens) [dynorphin A-(1-13)]”, for which the “activity in guinea pig ileum test” value in the data set on guinea pig ileum was “substantially more active than the enkephalins and β-endorphin”.

`CC[C@H](C)[C@H](NC(=O)[C@H](CCCNC(=N)N)NC(=O)[C@@H](CC(C)C)NC(=O)[C@@H](N)Cc1ccccc1)C(=O)N[C@@H](CCCNC(=N)N)C(=O)N1CCC[C@H]1C(=O)N[C@@H](CCCCN)C(=O)O` [SH145]: in data set [2], the half-life is more than 1440 min. Moreover, in data set [1] (setting [9]), the IC50 was 99 nM. Besides, in data set [1] (rat brain bradykinin receptors), the “binding affinity at bradykinin receptors (in words)” value was “retained the same high binding affinity as LYS1044”. For “GFLRRIRP [BP1004D, Gly-Phe-Leu-Arg-Arg-Ile-Arg-Pro]”, the IC50 in data set [1] (setting [6]) came out at 1200 nM. With “GFLRIR [Analogs J101, Gly-Phe-Leu-Arg-Ile-Arg]”, in data set [1] (setting [7]), the IC50 worked out at 620 nM. For “IRPKLK [LYS1039, Ile-Arg-Pro-Lys-Leu-Lys]”, the IC50 in data set [1] (setting [4]) was 63 nM; in data set [1] (setting [5]) it was 81 nM.

Consider “FLRRIRRPK [SH114, Phe-Leu-Arg-Arg-Ile-Arg-Arg-Pro-Lys]”, for which the half-inhibitory concentration (IC50) in data set [1] (setting [10]) turned out to be 74 nM. As for FIRIRPR [AN105], in data set [1] (setting [11]), the IC50 turned out to be 110 nM. For `CC[C@H](C)[C@H](NC(=O)[C@H](CCCNC(=N)N)NC(=O)[C@H](CCCNC(=N)N)NC(=O)[C@H](CC(C)C)NC(=O)[C@H](Cc1ccccc1)NC(=O)CNC(=O)CN)C(=O)N[C@@H](CCCNC(=N)N)C(=O)N1CCC[C@H]1C(=O)N[C@@H](CCCCN)C(=O)N[C@@H](CC(C)C)C(=O)N[C@@H](CCCCN)C(=O)O` [Dyn (2-13), Gly-Gly-Phe-Leu-Arg-Arg-Ile-Arg-Pro-Lys-Leu-Lys, reference compound], the “motor function after intrathecal (spinal) injection” value in the data set on naive rats is “produces disturbances of motor function and antinociception”. Further, the IC50 turned out to be 21 nM in data set [1] (setting [4]) and 170 nM in data set [1] (setting [5]).

As to FLRLRPR [AN106], the half-maximal inhibitory concentration (IC50) in data set [1] (setting [11]) came to 100 nM.

Turning to “SH124: modified dynorphin A analog; Table 6 prints only changes: Nle at 8, Lys at 9, Nle at 12 ([Nle]KPK[Nle]K; ends and bridges not checked; also: modified dynorphin A analog, full sequence beyond listed fragment not given here)”, the concentration for half-maximal inhibition (IC50) in data set [1] (setting [9]) came to 78 nM. As to “GGFLRIRPKLK [CYF103, Gly-Gly-Phe-Leu-Arg-Ile-Arg-Pro-Lys-Leu-Lys]”, the IC50 in data set [1] (setting [4]) and in data set [1] (setting [10]) was 41 nM in each case. For “GFLRRIR [Analogs J104, Gly-Phe-Leu-Arg-Arg-Ile-Arg]”, in data set [1] (setting [6]), the IC50 amounted to 780 nM.

“GFLRIRPK [LYS1045, Gly-Phe-Leu-Arg-Ile-Arg-Pro-Lys]”: the IC50 in data set [1] (setting [7]) is 130 nM.

On to “RIRPKLK [LYS1114, Arg-Ile-Arg-Pro-Lys-Leu-Lys]”, for which the IC50 in data set [1] (setting [4]) came to 72 nM.

In the case of “LRRIRPKL [LYS1022, Leu-Arg-Arg-Ile-Arg-Pro-Lys-Leu]”, the IC50 in data set [1] (setting [3]) was found to be 7100 nM. The same measure, in the same setting: next, “FLRRIRPK [Analogs S1F, Phe-Leu-Arg-Arg-Ile-Arg-Pro-Lys-NH2]”: 6800 nM. As to “GFLRRIRPKLK [LYS1021, Gly-Phe-Leu-Arg-Arg-Ile-Arg-Pro-Lys-Leu-Lys]”, in data set [1] (setting [6]), the IC50 stood at 320 nM. With WLRIRPK [AN103], in data set [1] (setting [11]), the IC50 amounted to 190 nM. Regarding RPKLK [LYS1113, Arg-Pro-Lys-Leu-Lys], the 50% inhibitory concentration (IC50) in data set [1] (setting [4]) worked out at 58 nM. With “GFLRIRPKLK [LYS1042, Gly-Phe-Leu-Arg-Ile-Arg-Pro-Lys-Leu-Lys]”, the 50% inhibitory concentration (IC50) in data set [1] (setting [4]) was found to be 26 nM; in data set [1] (setting [5]) it was 41 nM; in data set [1] (setting [7]), 43 nM. Turning to FLRIRPR [AN104], the IC50 in data set [1] (setting [8]) and in data set [1] (setting [11]) was 210 nM each time. Regarding GFLR [LYS1031, Gly-Phe-Leu-Arg-NH2], the half-maximal inhibitory concentration (IC50) in data set [1] (setting [3]) was more than 10000 nM. The same measure, in the same setting: the figure for “RIRPKL [RK108, Arg-Ile-Arg-Pro-Lys-Leu-NH2]” is 6300 nM.

Consider PKLK [LYS1038, Pro-Lys-Leu-Lys], for which the IC50 in data set [1] (setting [4]) came out at 210 nM; in data set [1] (setting [5]), 120 nM. GFLR [LYS1035, Gly-Phe-Leu-Arg]: the 50% inhibitory concentration (IC50) in data set [1] (setting [6]) and in data set [1] (setting [3]) was 950 nM in each case. As for “GFLRRIRPK [LYS1027, Gly-Phe-Leu-Arg-Arg-Ile-Arg-Pro-Lys]”, the IC50 in data set [1] (setting [6]) was determined as 130 nM. In the case of “AN109: dynorphin A analog; Table 4 prints only changes: Ac- in Gly^3 column, Nle at 5, Nle at 8, Arg at 11 (Ac-GF[Nle]R[Nle]RPR)”, the IC50 in data set [1] (setting [8]) was 210 nM. As to “FLRIRPK [AP107-1, Ac-Phe-Leu-Arg-Ile-Arg-Pro-Lys]”, the IC50 in data set [1] (setting [3]) and in data set [1] (setting [8]) was 120 nM each time. For the compound “LYS1107: modified dynorphin A analog; Table 6 prints only the change: Nle at position 12 (PK[Nle]K; ends and bridges not checked; also: modified dynorphin A analog, full sequence beyond listed fragment not given here)”, the IC50 in data set [1] (setting [11]) turned out to be 72 nM.

As to “AN101: modified dynorphin A analog; Table 6 prints only the change: Nle at position 8 (FLR[Nle]RPK)”, the concentration for half-maximal inhibition (IC50) in data set [1] (setting [11]) was found to be 140 nM.
